What follows are compounds tested on A549 (assay: Cytotoxicity against human A549 cells after 72 hrs by SRB assay). Conditions: A549, 72 h.
Assay type: functional

Point of comparison: CC[C@H](C)C1=C(OC)[C@H](O)[C@](C)(CC)C1=O, GI50 41.3 µM. Against it:
- O=c1[nH]cc(F)c(=O)[nH]1 [FLUOROURACIL] — 11-fold lower, 3.6 µM
- CO[C@@H]1C(=O)CC[C@]2(CO2)[C@@]1(O)[C@@]1(C)O[C@@H]1CC=C(C)C [OVALICIN] — 10-fold lower, 4.1 µM

From ChEMBL document CHEMBL2417502, “Polyketides from the littoral plant associated fungus Pseudallescheria boydii” (2013)
